Publication PMC11042242, “1,5-Disubstituted tetrazoles as PD-1/PD-L1 antagonists” (RSC Medicinal Chemistry, 2024)

Key:
[1] = biological target: PD-1/PD-L1 complex (Homo sapiens, UniProt Q9NZQ7); conditions: for IC50 (nM), SAR toward PD-L1 based on the HTRF methodology / IC50: 5 nM hPD-L1, 50 nM hPD-1, 10f, 10l, 10p IC50 measured with 6 concentrations, remaining compounds estimated from scouting mode (50 and 5 nM) by translation of average Hill's fits; for IC50: read-out: IC50 (nM), SAR toward PD-L1 based on the HTRF methodology; for activity towards dissociating the PD-1/PD-L1 complex: one-point experiment at 50 and 5 nM concentrations of each inhibitor
Sequence of PD-1/PD-L1 complex (Q9NZQ7 19-238 limits assumed, one chain of several): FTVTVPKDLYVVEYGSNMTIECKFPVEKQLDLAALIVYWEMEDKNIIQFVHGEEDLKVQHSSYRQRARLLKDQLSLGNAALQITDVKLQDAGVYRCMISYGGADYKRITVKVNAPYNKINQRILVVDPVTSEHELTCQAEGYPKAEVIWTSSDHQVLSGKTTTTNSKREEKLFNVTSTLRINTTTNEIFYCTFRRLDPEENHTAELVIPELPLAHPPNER
Method: Homogenous Time Resolved Fluorescence
HTRF was performer using the certified Cis-Bio assay according to the manufacturer’s guidelines.
experiments were performed at 5 nM of hPD-L1 and 50 nM of hPD-1 in the final formulation at 20 µL final
After mixing all components according to Cis-Bio protocol, the plate was left for 1h incubation
at room temperature followed by TR-FRET measurement on Tecan Spark 20M. To determine the activity of tested
compounds data was collected for 2 different concentrations of the ligand: 50 nM and 5 nM in the final volume.
All measurements were performed on two individual
dilution series, unless states otherwise. Collected data was background subtracted on the negative control,
normalized on the positive control, averaged and for IC50 determination fitted with normalized Hill’s equation to
determine the IC50 value using Mathematica 12. For remaining compounds, which were measured in scouting
mode, the inhibitory constants were approximated by translation of the average Hill’s fits of fully described
compounds to match the experimental datapoints. Since all compounds reported here are closely related, the slope
of Hill’s fit that determines the shape of the curve is therefore similar across them.

[2] = tested on: PD-L1; parameters: method as in PMID 35585982; conditions: printed in Fig. 1B, patented PD-L1 dimerizers by Maxinovel Pharma; cited from earlier work
[3] = biological target: T1, human PD-L1 (hPD-L1) (Homo sapiens, UniProt Q9NZQ7); assay: 1H NMR titration experiment with hPD-L1; type: binding; conditions: molar ratio of protein to inhibitor 1 : 1; PBS pH 7.4, 0.2 mM PD-L1
T1 construct: PD-L1 gene (amino acids 18-134); made in house
T1 sequence (Q9NZQ7 18-134): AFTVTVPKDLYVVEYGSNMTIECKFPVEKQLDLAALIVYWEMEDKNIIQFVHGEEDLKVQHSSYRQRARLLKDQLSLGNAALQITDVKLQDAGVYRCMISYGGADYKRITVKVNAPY
Method: The corresponding behaviour is characteristic of hPD-L1 oligomerization, previously observed by our group with BMS reference compounds.[20]
Fig. 2 Aliphatic part of the ^1H NMR spectra of PD-L1 with tetrazole-based inhibitors. ^1H NMR spectra of hPD-L1 protein (blue), PD-L1 and compounds: (A) 10f, (B) 10p, and (C) 10l in protein to inhibitor molar ratios of 1 : 1 (red) and 1 : 10 (green), respectively.
NMR spectra were recorded in PBS pH 7.4 containing 10% (v/v) of D2O added to the samples to provide the lock signal. Water suppression was carried out using the WATERGATE pulse sequence. All the spectra were recorded at 300 K using a Bruker Avance III 600 MHz spectrometer. The spectra were recorded at the protein/ligand at the molar ratio 1:1 and 1:10. The sample were prepared by adding the appropriate amounts of inhibitor, from 50 mM ligand stock solution in DMSO-d6, to the protein solution of PD-L1 at a concentration of 0.2 mM. Spectra were visualized using TopSpin 3.2
Protein expression and purification
E. coli strain BL21 was transformed with pET-21b plasmid carrying PD-L1 gene (amino acids 18-134). The bacteria were cultured in LB at 37°C until OD600nm of 0.6 when the recombinant protein production was induced with 1 mM IPTG. The protein production was continued overnight. Inclusion bodies were collected by centrifugation, washed twice with 50 mM Tris-HCl pH 8.0 containing 200 mM NaCl, 10 mM EDTA, 10 mM 2-mercaptoethanol and 0.5% Triton X-100, followed by a single wash with the same buffer but with no Triton X-100. The washed inclusion bodies were resuspended overnight in 50 mM Tris-HCl pH 8.0, 6 M GuHCl, 200 mM NaCl and 10 mM 2-mercaptoethanol and clarified with centrifugation. Refolding of PD-L1 was performed by drop-wise dilution into 0.1 M Tris-HCl pH 8.0 containing 1 M L-arginine hydrochloride, 0.25 mM oxidized glutathione and 0.25 mM reduced glutathione. […]
7.4. The quality of the refolded protein was evaluated by SDS-PAGE and NMR. […]

IC50 (nM), SAR toward PD-L1 based on the HTRF methodology [1]	IC50 [1]	SMILES	further results
	2850 nM	Cc1c(/C=C/n2nnnc2CNCCCCCO)cccc1-c1ccc2c(c1)OCCO2 [10n]	
	408 nM	CCNCc1nnnn1/C=C/c1cccc(-c2ccccc2)c1C [10f]	hPD-L1 oligomerization upon addition of the ligand (broadening of hPD-L1 proton signals) [3]: protein oligomerization; activity towards dissociating the PD-1/PD-L1 complex [1]: better activity
	1800 nM	Cc1c(/C=C/n2nnnc2C(C)NCCCO)cccc1-c1ccccc1 (centres unmarked) [10g]	
	1840 nM	Cc1c(/C=C/n2nnnc2CNCCCCCO)cccc1-c1ccccc1 [10j]	
Inactive		Cc1c(/C=C/n2nnnc2CNCC(C)(C)C)cccc1-c1ccccc1 [10e]	
	1130 nM	Cc1c(/C=C/n2nnnc2CNCCCCO)cccc1-c1ccc2c(c1)OCCO2 [10o]	

Continued, molecule first:

SMILES	IC50 (nM), SAR toward PD-L1 based on the HTRF methodology [1]	IC50 [1]	further results
Cc1c(COc2cc(OCc3cccc(C#N)c3)c(CN3C[C@H](O)C[C@@H]3C(=O)O)cc2Cl)cccc1-c1ccc2c(c1)OCCO2 [BMS-1166, reference compound]			undissociated PD-1/PD-L1 complex ([1]; one-point experiment, 50 and 5 nM concentrations of inhibitor): 42.1 ± 6.4%
Cc1c(/C=C/n2nnnc2CN[C@]23CC4CC(C[C@@](O)(C4)C2)C3)cccc1-c1ccccc1 [10h]	Inactive		
Cc1c(/C=C/n2nnnc2CN2CCOC2)cccc1-c1ccccc1 [10k]		1000 nM	
Cc1c(/C=C/c2cc(CNC(C)(CO)C(=O)O)ccc2C(F)(F)F)cccc1-c1ccc2c(c1)OCCO2 (centres unmarked) [MAX-10181]			IC50 [2]: 18 nM
Cc1c(/C=C/n2nnnc2CN2CCCCOC2)cccc1-c1ccccc1 [10i]		460 nM	
Cc1c(/C=C/n2nnnc2CN[C@]23CC4CC(C[C@@](O)(C4)C2)C3)cccc1-c1ccc2c(c1)OCCO2 [10m]	Inactive		
Cc1c(/C=C/n2nnnc2C(CC(C)C)NCCN2CCOCC2)cccc1-c1ccccc1 (centres unmarked) [10a]	Inactive		
Cc1c(/C=C/n2nnnc2C(CCl)NCc2ccco2)cccc1-c1ccccc1 (centres unmarked) [10c]	Inactive		
Cc1c(/C=C/n2nnnc2C(C)NCCCO)cccc1-c1ccc2c(c1)OCCO2 (centres unmarked) [10p]		254 nM	hPD-L1 oligomerization upon addition of the ligand (broadening of hPD-L1 proton signals) [3]: protein oligomerization; activity towards dissociating the PD-1/PD-L1 complex [1]: better activity
Cc1c(/C=C/n2nnnc2CNCCO)cccc1-c1ccc2c(c1)OCCO2 [10q]	Inactive		
Cc1c(/C=C/n2nnnc2CN2CCCOC2)cccc1-c1ccccc1 [10l]		944 nM	hPD-L1 oligomerization upon addition of the ligand (broadening of hPD-L1 proton signals) [3]: protein oligomerization; activity towards dissociating the PD-1/PD-L1 complex [1]: better activity
Cc1c(/C=C/n2nnnc2C(NCc2ccncc2)C2CC2)cccc1-c1ccccc1 (centres unmarked) [10d]		1770 nM	
COc1cccc(CNC(c2nnnn2/C=C/c2cccc(-c3ccccc3)c2C)C(C)C)c1OC (centres unmarked) [10b]	Inactive		
Cc1c(/C=C/n2nnnc2CN2CCCOC2)cccc1-c1ccc2c(c1)OCCO2 [10r]		1130 nM	
